Counter-ions that a name gives are not always drawn.
What was measured:
[1] = molecular target: 3,6-anhydro-D-galactonate cycloisomerase DauB (ZGAL_3156) (Zobellia galactanivorans); assay: SEC; size-exclusion column analysis of ZGAL_3156 in solution (Supplementary Fig. 9)
[2] = molecular target: 3,6-anhydro-D-galactonate cycloisomerase DauB (ZGAL_3156) (Zobellia galactanivorans); assay: crystal structure; hanging drop vapor diffusion; 0.2 M tri potassium citrate, 20% PEG 3350, 25 mg/mL ZGAL_3156; data at 100 K
ZGAL_3146 (CgsB1, S1_7) = molecular target: T1, ZGAL_3146 (CgsB1, S1_7) (Zobellia galactanivorans, UniProt G0L7B4); assay: sulfatase activity on artificial substrate; assay type: biochemical
T1 construct: gene idsA3
T1 sequence (G0L7B4 19-544): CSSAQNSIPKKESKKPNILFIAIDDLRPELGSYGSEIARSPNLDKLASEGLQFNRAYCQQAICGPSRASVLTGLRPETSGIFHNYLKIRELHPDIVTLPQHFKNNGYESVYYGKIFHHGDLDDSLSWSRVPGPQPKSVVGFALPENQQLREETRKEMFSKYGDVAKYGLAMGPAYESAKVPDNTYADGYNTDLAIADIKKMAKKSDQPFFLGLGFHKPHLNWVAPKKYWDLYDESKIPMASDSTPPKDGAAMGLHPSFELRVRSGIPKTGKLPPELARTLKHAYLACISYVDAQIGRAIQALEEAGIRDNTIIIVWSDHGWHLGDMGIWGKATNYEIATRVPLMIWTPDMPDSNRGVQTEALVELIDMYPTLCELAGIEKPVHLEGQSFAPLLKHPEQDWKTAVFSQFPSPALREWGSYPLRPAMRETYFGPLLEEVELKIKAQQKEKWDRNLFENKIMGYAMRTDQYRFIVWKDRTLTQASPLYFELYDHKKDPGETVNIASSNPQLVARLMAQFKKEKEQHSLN

ZGAL_3145 (CgsA, S1_19) = molecular target: T2, ZGAL_3145 (CgsA, S1_19) (Zobellia galactanivorans, UniProt G0L000); assay: sulfatase activity on artificial substrate; assay type: biochemical
T2 construct: gene zobellia_3145
T2 sequence (G0L000 44-511): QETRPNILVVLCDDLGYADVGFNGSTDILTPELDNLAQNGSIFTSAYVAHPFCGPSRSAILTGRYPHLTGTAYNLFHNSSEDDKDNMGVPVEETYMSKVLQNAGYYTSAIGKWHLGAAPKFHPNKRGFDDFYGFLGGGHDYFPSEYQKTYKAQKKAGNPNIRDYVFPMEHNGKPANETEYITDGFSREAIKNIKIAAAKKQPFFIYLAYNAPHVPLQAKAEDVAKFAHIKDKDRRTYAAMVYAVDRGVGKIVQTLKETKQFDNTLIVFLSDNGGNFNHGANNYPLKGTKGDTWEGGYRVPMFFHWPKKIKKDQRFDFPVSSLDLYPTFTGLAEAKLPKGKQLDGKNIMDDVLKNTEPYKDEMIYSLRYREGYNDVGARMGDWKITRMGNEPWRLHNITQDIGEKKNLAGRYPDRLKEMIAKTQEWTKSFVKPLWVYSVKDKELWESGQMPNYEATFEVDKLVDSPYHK

ZGAL_3151 (CgsC, S1_17) = molecular target: T3, ZGAL_3151 (CgsC, S1_17) (Zobellia galactanivorans, UniProt G0L7B6); assay: sulfatase activity on artificial substrate; assay type: biochemical
T3 construct: gene zobellia_3151
T3 sequence (G0L7B6 40-596): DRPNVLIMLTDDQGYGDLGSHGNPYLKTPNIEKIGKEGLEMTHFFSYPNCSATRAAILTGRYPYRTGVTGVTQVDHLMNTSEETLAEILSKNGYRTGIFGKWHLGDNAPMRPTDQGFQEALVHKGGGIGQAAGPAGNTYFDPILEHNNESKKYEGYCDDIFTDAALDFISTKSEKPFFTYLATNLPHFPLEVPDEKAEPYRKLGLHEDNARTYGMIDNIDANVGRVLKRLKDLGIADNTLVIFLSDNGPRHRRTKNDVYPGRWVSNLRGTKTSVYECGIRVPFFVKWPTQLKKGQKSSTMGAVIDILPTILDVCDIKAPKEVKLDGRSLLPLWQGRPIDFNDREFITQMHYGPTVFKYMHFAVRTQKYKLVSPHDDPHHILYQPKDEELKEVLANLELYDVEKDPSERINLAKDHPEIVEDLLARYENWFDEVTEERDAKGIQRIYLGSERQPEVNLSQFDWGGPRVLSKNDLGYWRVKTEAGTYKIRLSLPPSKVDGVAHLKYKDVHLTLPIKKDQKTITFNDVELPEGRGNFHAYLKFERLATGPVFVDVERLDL

[3] = molecular target: T4, ZGAL_3152 (DagB, GH129-like) (Zobellia galactanivorans, UniProt G0L004); assay: FACE and MALDI-TOF-MS; assay type: biochemical; conditions: 0.5% hexasaccharide fraction, 150 mM NaCl, 3.75 mM CaCl2, 100 mM HEPES pH 7.5, room temperature overnight
T4 construct: gene zobellia_3152; recombinant, E. coli BL21(DE3), pFO4, IMAC purified; homodimer, residues Pro35-Asp693 described in structure

[4] = molecular target: T5, ZGAL_3148 (DagA2, GH127-2) (Zobellia galactanivorans, UniProt G0L7B5); assay: FACE and MALDI MS, E. coli soluble lysate; assay type: biochemical; conditions: 0.5% hexasaccharide fraction, 150 mM NaCl, 3.75 mM CaCl2, 100 mM HEPES pH 7.5, room temperature overnight
T5 construct: gene zobellia_3148; recombinant, soluble lysate of E. coli BL21(DE3), pFO4
T5 sequence (G0L7B5 1-656): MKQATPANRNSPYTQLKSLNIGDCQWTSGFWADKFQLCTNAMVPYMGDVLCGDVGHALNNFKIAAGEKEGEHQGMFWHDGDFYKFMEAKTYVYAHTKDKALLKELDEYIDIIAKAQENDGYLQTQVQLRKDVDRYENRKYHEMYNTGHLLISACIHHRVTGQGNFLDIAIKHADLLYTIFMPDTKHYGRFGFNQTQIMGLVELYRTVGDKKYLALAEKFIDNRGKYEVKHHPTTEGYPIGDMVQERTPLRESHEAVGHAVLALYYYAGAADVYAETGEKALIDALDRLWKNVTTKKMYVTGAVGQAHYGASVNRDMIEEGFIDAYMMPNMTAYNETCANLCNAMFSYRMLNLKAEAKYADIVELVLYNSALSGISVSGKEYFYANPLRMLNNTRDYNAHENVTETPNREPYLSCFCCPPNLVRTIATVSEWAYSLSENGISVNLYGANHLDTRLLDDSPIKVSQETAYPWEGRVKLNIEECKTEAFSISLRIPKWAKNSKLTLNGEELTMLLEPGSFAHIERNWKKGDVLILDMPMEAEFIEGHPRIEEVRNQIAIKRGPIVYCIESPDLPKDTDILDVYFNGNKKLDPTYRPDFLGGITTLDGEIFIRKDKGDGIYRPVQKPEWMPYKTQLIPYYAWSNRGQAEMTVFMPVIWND

[5] = molecular target: T6, ZGAL_3147 (DagA1, GH127-1) (Zobellia galactanivorans, UniProt G0L001); assay: FACE and MALDI MS, E. coli soluble lysate; assay type: biochemical; conditions: 0.5% hexasaccharide fraction, 150 mM NaCl, 3.75 mM CaCl2, 100 mM HEPES pH 7.5, room temperature overnight; vector-only lysate as control
T6 construct: gene zobellia_3147; recombinant, soluble lysate of E. coli BL21(DE3), pFO4
T6 sequence (G0L001 20-681): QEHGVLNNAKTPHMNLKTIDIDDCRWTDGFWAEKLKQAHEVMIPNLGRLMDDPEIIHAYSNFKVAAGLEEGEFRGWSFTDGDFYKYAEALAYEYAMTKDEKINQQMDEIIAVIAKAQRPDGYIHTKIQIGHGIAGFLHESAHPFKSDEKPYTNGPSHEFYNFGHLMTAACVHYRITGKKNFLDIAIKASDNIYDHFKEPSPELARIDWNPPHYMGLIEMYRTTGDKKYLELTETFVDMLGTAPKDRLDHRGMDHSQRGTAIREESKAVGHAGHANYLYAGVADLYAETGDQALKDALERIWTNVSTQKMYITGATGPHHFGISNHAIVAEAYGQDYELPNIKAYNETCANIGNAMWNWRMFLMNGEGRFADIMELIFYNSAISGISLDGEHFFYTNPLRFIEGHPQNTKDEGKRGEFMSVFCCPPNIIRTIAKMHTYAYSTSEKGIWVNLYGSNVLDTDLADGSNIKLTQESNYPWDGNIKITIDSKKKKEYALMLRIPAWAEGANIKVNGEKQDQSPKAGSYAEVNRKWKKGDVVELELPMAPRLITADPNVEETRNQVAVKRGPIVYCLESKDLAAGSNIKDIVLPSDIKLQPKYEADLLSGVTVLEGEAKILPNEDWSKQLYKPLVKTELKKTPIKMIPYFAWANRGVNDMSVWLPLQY

[6] = molecular target: α-1,3-(3,6-anhydro)-D-galactosidase DagB (ZGAL_3152, GH129-like) (Zobellia galactanivorans); assay: crystal structure; hanging drop vapor diffusion; 0.14 M Na/K-tartrate, 12% PEG 3350, 9 mg/mL ZGAL_3152; data at 100 K

T4 sequence (G0L004 entry or part of it): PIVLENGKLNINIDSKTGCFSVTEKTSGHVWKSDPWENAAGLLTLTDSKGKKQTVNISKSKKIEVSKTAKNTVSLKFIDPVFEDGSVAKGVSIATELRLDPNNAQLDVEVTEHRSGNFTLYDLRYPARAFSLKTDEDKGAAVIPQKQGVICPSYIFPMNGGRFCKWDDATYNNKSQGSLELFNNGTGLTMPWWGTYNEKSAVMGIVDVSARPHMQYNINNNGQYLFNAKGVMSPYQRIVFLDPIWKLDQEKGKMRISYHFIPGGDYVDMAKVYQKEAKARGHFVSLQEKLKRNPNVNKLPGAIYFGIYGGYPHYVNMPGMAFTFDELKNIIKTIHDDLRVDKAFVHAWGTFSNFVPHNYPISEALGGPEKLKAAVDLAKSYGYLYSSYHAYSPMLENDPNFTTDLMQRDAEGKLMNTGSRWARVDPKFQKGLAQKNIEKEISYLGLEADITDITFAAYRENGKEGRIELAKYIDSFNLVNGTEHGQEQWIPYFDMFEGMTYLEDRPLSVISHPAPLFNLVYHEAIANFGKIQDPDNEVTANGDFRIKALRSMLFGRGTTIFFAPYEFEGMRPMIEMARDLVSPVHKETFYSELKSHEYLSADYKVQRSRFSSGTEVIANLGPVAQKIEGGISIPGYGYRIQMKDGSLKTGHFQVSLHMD

Molecule: 3,6-anhydro-D-galactonate cycloisomerase DauB (ZGAL_3156) (enzyme)
- stoichiometry N [1]: 8
- stoichiometry N [2]: 8

Molecule: Cc1cc(=O)oc2cc(OS(=O)(=O)O)ccc12 [4-methylumbelliferyl sulfate]
- sulfatase activity on artificial substrate (ZGAL_3146 (CgsB1, S1_7)): shown to be active sulfatases using the artificial substrate 4-methylumbelliferyl sulfate
- sulfatase activity on artificial substrate (ZGAL_3145 (CgsA, S1_19)): shown to be active sulfatases using the artificial substrate 4-methylumbelliferyl sulfate
- sulfatase activity on artificial substrate (ZGAL_3151 (CgsC, S1_17)): shown to be active sulfatases using the artificial substrate 4-methylumbelliferyl sulfate

Molecule: O=C[C@H](O)[C@H]1OC[C@@H](O)[C@@H]1O [D-AnG]
- FACE and MALDI-TOF-MS [3]: indicated the release of the terminal neutral monosaccharide D-AnG and of a pentasaccharide

Molecule: O=S(=O)(O)O[C@@H]1[C@H](O[C@H]2O[C@@H]3CO[C@H]([C@H]2O)[C@H]3O[C@@H]2O[C@H](CO)[C@H](O)[C@H](O[C@H]3O[C@@H]4CO[C@@H]([C@H]4O)[C@H]3O)[C@H]2O)[C@@H](O)[C@H](O[C@@H]2[C@@H]3OC[C@H]2O[C@H](O[C@H]2[C@@H](OS(=O)(=O)O)[C@@H](CO)OC(O)[C@@H]2O)[C@@H]3O)O[C@@H]1CO (stereo partly drawn) [DP6 beta-kappa-kappa oligosaccharide]
- FACE and MALDI MS, E. coli soluble lysate [4]: All the GHs showed activity on the furcellaran hexasaccharide, as demonstrated using FACE
- FACE and MALDI MS, E. coli soluble lysate [5]: All the GHs showed activity on the furcellaran hexasaccharide, as demonstrated using FACE

Molecule: α-1,3-(3,6-anhydro)-D-galactosidase DagB (ZGAL_3152, GH129-like) (enzyme)
- stoichiometry N [6]: 2
